This is an account of results in patent EP0345906B1, “Unique elastase induced fibrinogen cleavage site antigens” (MERCK & CO. INC., priority 1988, dated 1989).

Where “and” joins values, the source holds several entries; their conditions need not be identical. Identical values can stand only once.

One assay concerns whole blood. The assay can be described thus: In vitro production of Aα 17-21 epitope containing peptide in whole blood, ionophore incubation time. The format is cell-based, human. Also on record: dose or concentration left out as unconfirmed. The protocol:
Calcium ionophore A23187 was added to replicate 1.0 ml aliquots of freshly-drawn heparinized whole blood as described above, to a final concentration of 150 mM. Additional control aliquots of blood received DMSO at a concentration of 0.2%. The blood aliquots were incubated at 37° for various time intervals ranging up to 60 minutes. Following the incubation, plasma was prepared, processed and assayed as above.

Another assay relates to whole human blood. The assay can be described thus: In vitro production of Aα 17-21 epitope containing peptide in human blood, effect of ionophore concentration. Also on record: Aα 17-21 Epitope Containing (picomoles per ml blood): unit of the concentration uncertain. The format is cell-based. The following applies: for Aα 17-21 Epitope Containing (picomoles per ml blood): 15 minutes at 37°C. As for the experimental part:
The radioimmunoassay was conducted in a total volume of 300 ml with all dilutions carried out in assay buffer, Example 6. Standard solutions were prepared at concentrations in the range of 1 x 10⁻¹⁰M to 2 x 1O⁻⁸M which represents amounts of peptide ranging from 0.01 picomoles to 2.0 picomoles in the 100 ml aliquot used in the assay. The assay included antibody-free controls to measure non-specific binding, and controls containing antibody and probe without added standard samples or unknown samples to determine the control level of peptide binding. To 100 ml of buffer, standard sample or unknown was added, 100 ml of specific antiserum from Examples 2 and 7, diluted 1:1,000 in assay buffer. This was followed by the addition of […] of radioactive probe, 125I-Tyrosyl-Aα 1-21 fibrinogen peptide, diluted in assay buffer to yield approximately 15,000 to 20,000 cpm per 100 ml aliquot. The assay was incubated overnight at 4°C and the non-antibody-bound radioactive probe was separated from antibody-bound probe by adsorption onto dextran-coated activated charcoal, see Example 7. Each assay included charcoal-free controls, to which 1 ml PBS was added for the determination of total counts. Radioactivity was determined using a gamma counter and standard techniques known in the art.
The antibody-free control and the zero-peptide antibody control were counted to determine the 0% bound and 100% bound values respectively. The assay standards are then counted and divided by the antibody control to determine the percent bound and a standard curve was generated. When the percent bound is plotted as a function of the logarithem of the amount of peptide in the standard, a sigmoidal curve is generated which is close to linear between the limits of 80% bound and 20% bound. Unknowns are counted, their percent of control calculated and they are compared to the standard curve to determine the amount of peptide present in the sample. Only those unknowns with values between 80% and 20% of control binding are considered valid.
Duplicate 1.0 ml aliquots of freshly-drawn heparinized vaccutainers containing 50 u per ml whole human blood were incubated for 15 minutes at 37°C in the presence of calcium ionophore A23187 at concentrations ranging up to 200 mM. The calcium ionophore was dissolved in dimethyl sulfoxide (DMSO) with the DMSO concentration in blood kept constant at 0.2%. Following incubation the aliquots were placed on ice, centrifuged and the plasma collected. Plasma aliquots (400 ml) were removed and placed in 12 x 75 mm glass tubes and 1200 ml chilled ethanol was added to precipitate the protein. The sample was centrifuged and 800 ml of the supernatant fluid was removed and evaporated to dryness in a Speed-vac concentrator. The sample was reconstituted to original plasma volume with 200 ml of distilled water. Duplicate […] aliquots were assayed for Aα 17-21 epitope containing peptide (Aα 1-21) as described in this Example. […]

The test system of assay [1] is Whole Blood of PiZZ and Normal Individuals. The assay can be described thus: A23187-stimulated production of fibrinogen cleavage peptide in blood of PiZZ and normal individuals. The format is cell-based, human. Further details: dose or concentration left out as unconfirmed. Particulars: 37° for 25 minutes, one value per individual. The protocol: Heparinized venous blood was drawn from four individuals who process the PiZZ phenotype, deficient for alpha-1 proteinase inhibitor. Blood was also collected from two normal volunteers. Calcium ionophore A23187 was added to replicate aliquots of the freshly drawn blood to a final concentration of 150 mM. The blood was incubated at 37° for 25 minutes, the plasma collected and assayed cleavage peptide.
Values are expressed as pM Aα 17-21 epitope containing peptide produced per ml of plasma. The blood samples derived from the four individuals who were genetically deficient in alpha-1 proteinase inhibitor produced greater amounts of peptide than did those derived from the normal volunteers. Under basal conditions no fibrinogen cleavage products could be detected in the blood of any of the donors.

Assay [2] has as its system Rabbit antiserum prepared against the Aα 17-21 immunogen. The assay is described as follows: Antibody specificity radioimmunoassay, rabbit antiserum. The format is binding. Particulars: antiserum 1:1,000; probe ¹⁵I-tyrosyl-Aα 1-21; amount in 100 ml aliquot. The protocol: Antibody specificity was determined by evaluating the ability of unlabelled peptides, specificity probes, of varying length, see Example 6, to inhibit the binding of the Aα 1-21radioactive probe. Rabbit antiserum prepared against the Aα 17-21 immunogen described in Example 2 was diluted in assay buffer, see Example 6, at a dilution of 1:1,000. The specificity peptides of Example 5 were diluted in assay buffer at concentrations ranging from 1.6 x 10⁻¹⁰ M to 1 x 10⁻⁵ M. One hundred ml of each dilution was added to 100 ml of antiserum and 100 ml of radioactive probe. This represents specificity probe peptide in concentrations ranging from 0.016 picomoles to 1.0 nanomoles in the 100 ml aliquot used in the assay. The radioactive probe […], see Example 5, was diluted in assay buffer to yield approximately 20,000 cpm per 100 ml aliquot, the amount used per sample or control. The assay was set up in a volume of 300 ml, with the volume made up where necessary with assay buffer. […]
The antibody-free control and the zero-peptide antibody control are counted to determine the 0% bound and the 100% bound values respectively. Radioactivity was determined using a gamma counter and standard techniques known in the art. The samples containing the test peptides are then counted and the amount of radioactivity associated with the antibody-free control subtracted from each. […]

The test system of a further assay is Guinea Pig (#3). The assay can be described thus: Antibody specificity radioimmunoassay, guinea pig antiserum. Particulars: probe ¹⁵I-tyrosyl-Aα 1-21. The format is binding.

As for `CNc1ccc2oc(C[C@H]3O[C@@]4(CC[C@H]3C)O[C@H]([C@H](C)C(=O)c3ccc[nH]3)[C@H](C)C[C@H]4C)nc2c1C(=O)O` [A23187], the “Aα 17-21 Epitope (picomoles/ml plasma)” value in the assay with whole blood (Incubation Time 2.5 minutes) was 2.3 picomoles/ml plasma; in the assay on whole blood (Incubation Time 7.5 minutes), 2.8 picomoles/ml plasma; in the assay on whole blood (Incubation Time 10.0 minutes), 3.5 picomoles/ml plasma; in the assay on whole blood (Incubation Time 15.0 minutes), 3.7 picomoles/ml plasma; in the assay on whole blood (Incubation Time 20.0 minutes), 3.7 picomoles/ml plasma; in the assay on whole blood (Incubation Time 25.0 minutes), 3.8 picomoles/ml plasma. Further, the “Aα 17-21 Epitope (picomoles/ml plasma)” value is 3.8 picomoles/ml plasma in the assay on whole blood (Incubation Time 30.0 minutes); 3.6 picomoles/ml plasma in the assay on whole blood (Incubation Time 40.0 minutes); 3.1 picomoles/ml plasma with whole blood (Incubation Time 50.0 minutes); 3.2 picomoles/ml plasma in the assay with whole blood (Incubation Time 60.0 minutes); 0.7 picomoles/ml plasma in the assay on whole blood (Incubation Time <1.0 minutes). Further, the “Aα 17-21 Epitope Containing (picomoles per ml blood)” value in the assay with whole human blood (Ionophore Concentration 5 (unit uncertain)) amounted to 1.2 picomoles per ml blood; in the assay with whole human blood (Ionophore Concentration 15 (unit uncertain)) it was 1.6 picomoles per ml blood; in the assay on whole human blood (Ionophore Concentration 25 (unit uncertain)) it was 2.6 picomoles per ml blood; with whole human blood (Ionophore Concentration 50 (unit uncertain)), 2.8 picomoles per ml blood; in the assay on whole human blood (Ionophore Concentration 100 (unit uncertain)), 4.0 picomoles per ml blood; in the assay with whole human blood (Ionophore Concentration 150 (unit uncertain)), 4.1 picomoles per ml blood. The “Aα 17-21 Epitope Containing (picomoles per ml blood)” value with whole human blood (Ionophore Concentration 200 (unit uncertain)) is 3.8 picomoles per ml blood. Besides, the “concentration giving optimal production of Aα 17-21 epitope-containing peptide” value with whole human blood (whole human blood) is reported as 150 mM. Further, the “Aα 17-21 epitope containing peptide produced per ml of plasma, A23187” value in assay [1] (Normal individuals) was 4.2 pM per ml of plasma and 4.6 pM per ml of plasma; in assay [1] (PiZZ individuals), 8.4 pM per ml of plasma and 26.5 pM per ml of plasma and 20.5 pM per ml of plasma and 17.8 pM per ml of plasma.
For the compound “Gly-Pro-Arg-Val-Val (GPRVV; printed: Gly-Pro-Arg-Val-Val) [Aα 17-21]”, the “Inhibitory Concentration (IC₅₀) picomoles Rabbit (#20)” value in assay [2] was 1.6 picomoles. Also, in the assay on Guinea Pig (#3), the “Inhibitory Concentration (IC₅₀) picomoles Guinea Pig (#3)” value was determined as 10 picomoles.
